The text below walks through data of US20170312334A1, “METHODS AND COMPOSITIONS FOR TREATING INFLAMMATORY DISORDERS” (ROGNE BIOSCIENCE INC., priority 2014, published 2017).

Where only a bound is given, the exact number is not on record here.

One assay relates to TNFα. Description: Inhibition of LPS/IFNγ-induced cytokine expression (TNFα). The format is cell-based.
Assay [1] concerns RANTES. Description: Inhibition of LPS/IFNγ-induced cytokine expression (RANTES). The format is cell-based.
The subject of assay [2] is NF-κB. Description: NF-κB activation assay: camptothecin induced NF-κB nuclear binding. The format is cell-based. As to conditions: camptothecin 10 μM to 10 nM. The procedure:
Treatment of the nuclear extract with the p65 antibody results in a significant decrease in NF-κB/DNA binding. As a negative control, cells are left inactivated and nuclear extracts are treated with the NF-κB consensus sequence, illustrating only a slight background level of NT-κB.
Inhibition of camptothecin mediated activation of NF-κB by the agents disclosed herein is as follows: Induction of NF-κB activation can proceed via a wide range of signaling pathways (Delhase et al., Science 284: 309-313 (1999); Karin, Oncogene 18: 6867-6874 (1999)). Inhibition of NF-κB activation can proceed via the inhibition of many different pathways (Epinat and Gilmore, Oncogene 18: 6896-6909 (1999)). […]
Human Jurkat leukemia T-cells (clone E6-1; Amer. Type Culture Collection, Rockville, Md.) are grown in RPMI-1640 Media (Gibco-BRL, Rockville, Md.) supplemented with 10% fetal bovine serum, penicillin (614 ng/mL), streptomycin (10 μg/mL) and HEPES buffer, pH 7.2 at 37° C., 5% CO2. […] The protein concentration of the extracts is determined according to the Method of Bradford (1976) with BioRad reagents. […] After electrophoresis the gel is analyzed using a phosphorimager (Biorad FX plus) for detection of the NF-κB-DNA binding.

The test system of assay [3] is RANTES. Description: Newly synthesized RANTES in human macrophages (FIG. 18C). In kind it is cell-based.
Assay [4] has as its system imiquimod-induced dermal inflammation. Description: Imiquimod-induced psoriasis-like skin inflammation model in mice. As to conditions: topically applied, in vivo, mice (FIG. 15). The procedure:
Psoriasis is induced by imiquimod applied to the back and ears of the test animals. The initial signs of the disease are observed within 5-6 days as redness and the appearance of plaque type psoriasis, and the disease progresses onto the entire back of the animal.
The study is carried out on female BALC/c mice, 9-10 weeks old at study initiation. […] The animals are divided into group 1 (naïve), group 2 (vehicle+IMQ), group 3 (C15 peptide test agent+IMQ) and group 4 (C15 peptide test agent+IMQ).
The animals are examined for signs of psoriasis on study day 1. These scores served as a baseline for the psoriasis clinical score parameter. Starting from IMQ cream application on day 1, psoriasis responses are examined from day 5 until termination of the study.
Psoriasis reactions (erythema and plaques) are scored and recorded. For plaques, a scale of 0-7 is used with 0 being normal and 7 being no fur with small red dots covering 50%-100% of the back. For erythema, a scale of 0-4 is used with 0 being normal and 4 being very marked. The clinical score is determined by summing the score of each section. The final psoriasis score is the sum of the erythema score and the plaques score.
Right ear thickness is measured before psoriasis induction on study day 1 (baseline). […] Right ear thickness is then measured on study days 5, 8 and 10 (study termination). […]

For assay [5], the system named is NF-κB. Description: Modulation of NF-κB activity compared with steroid (FIG. 17). The format is cell-based. The settings on record: FIG. 17A/17B.
Assay [6] deals with NF-κB-regulated cytokines. Nature of the assay: Secretion of NF-κB-regulated cytokines by mouse macrophages (FIG. 18B). The format is cell-based.

With NNNNNNNNNN, the “Percent Inhibition of LPS/IFNγ-induced Cytokine Expression” value with TNFα was 1%; with RANTES [1], 0%.
Regarding `CC[C@@]1(O)C(=O)OCc2c1cc1n(c2=O)Cc2cc3ccccc3nc2-1` [camptothecin], the “NF-κB/DNA binding due to NF-κB activation” value with NF-κB [2] is “significant amount of NF-κB/DNA binding”.
On to “AGEDPHSFYFPGQFA (listed as Homo sapiens) [human C15 peptide]”, for which, in the assay on RANTES [3] (human macrophages (FIG. 18C)), the “reduction of newly synthesized RANTES” value was more than 90%. Further, the “potency relative to steroid (Dex)” value in the assay on RANTES [3] (human macrophages, RANTES (FIG. 18C)) was 10^6 time. Besides, the imiquimod-induced dermal inflammation result in assay [4] is “reduces imiquimod-induced dermal inflammation in vivo in a dose dependent manner”. In the assay on NF-κB [5], the “NF-κB activity modulation relative to steroid” value was “modulates NF-κB activity more potently than steroid”. Besides, the “secretion of NF-κB-regulated cytokines” value in assay [6] is “reduced”.
